From US10206988B2, “Xenoantigen-displaying anti-cancer vaccines and method of making” (The University of Toledo, priority 2012, dated 2019)

Columns and labels:
[1] = system: female BALB/c mice; test: Anti-Rha antibody generation with Rha-Ficoll/Alum (ELISA against Rha-BSA); assay type: in vivo; details: day 66 sera
Experimental: The 20 female BALB/c mice used for this study were divided into four groups A1, A2, B1, and B2, containing 5 mice each. Groups A1 and B1 served as the control groups and were not immunized. Groups A2 and B2 were injected subcutaneously (day 0) with a 100 μL subcutaneous injections Rha-Ficoll/Alum on days 14, 28, 42, and 56 (100 μg of Rha-Ficoll per mouse, each boost). The mice in each group A1, A2, B1, and B2 were bled on day 66 and the collected sera were tested for anti-Rha antibodies.
96 well plates (Immulon 4 HBX) were coated with Rha-BSA conjugate (6) (2 μg/mL) in 0.01 M PBS and incubated overnight at 4° C. The plates were washed 5 times with PBS containing 0.1% Tween-20. Blocking was achieved by incubating the plates for 1 h at room temperature with BSA in 0.01 M PBS (1 mg/mL). The plates were then washed 5 times and incubated for 1 h with serum dilutions in PBS. Unbound antibody in the serum was removed by washing and the plates were incubated for 1 h at room temperature with Horseradish Peroxidase (HRP) goat anti-mouse IgG+IgM (Jackson Immunoresearch Laboratories) diluted 5000 times in PBS/BSA. The plates were washed with TMB (3,3′,5,5′-tetramethylbenzidine). One component HRP microwell substrate (Bio FX, Owings Mills, Md.) was added and allowed to react for 10 mins. Absorbances were recorded at 620 nm and were plotted against log10 [1/serum dilution]. […]

[2] = system: female BALB/c mice; test: Comparison of anti-Rha antibody titers and isotypes generated against Rha-Ficoll and Rha-OVA (screening against Rha-BSA); assay type: in vivo; details: isotype distribution, sera screened against Rha-BSA
Experimental: 96 well plates (Immulon 4 HBX) were coated with Rha-BSA conjugate (6) (2 μg/mL) in 0.01 M PBS and incubated overnight at 4° C. The plates were washed 5 times with PBS containing 0.1% Tween-20. Blocking was achieved by incubating the plates for 1 h at room temperature with BSA in 0.01 M PBS (1 mg/mL). The plates were then washed 5 times and incubated for 1 h with serum dilutions in PBS. Unbound antibody in the serum was removed by washing and the plates were incubated for 1 h at room temperature with Horseradish Peroxidase (HRP) goat anti-mouse IgG+IgM (Jackson Immunoresearch Laboratories) diluted 5000 times in PBS/BSA. The plates were washed with TMB (3,3′,5,5′-tetramethylbenzidine). One component HRP microwell substrate (Bio FX, Owings Mills, Md.) was added and allowed to react for 10 mins. Absorbances were recorded at 620 nm and were plotted against log10 [1/serum dilution].
Two groups of five female BALB/c mice each were immunized on day 0 with Rha-Ficoll/Alum adjuvant (group A) or Rha-OVA/complete Freund's adjuvant (CFA) (group B). The mice were boosted three more times on days 14, 28, and 42 with either Rha-Ficoll/Alum (group A) or rha-OVA/incomplete Freund's adjuvant (ICF) (group B). Sera were collected separately from groups A and B after the third boost and the anti-Rha antibodies in the sera from the two groups of mice were isotyped by screening against Rha-BSA. […]

[3] = system: U266 cells; test: Tumor cell staining (FACS); assay type: cell-based, human; details: 0.5 μg antibody, FITC goat anti-mouse IgG+IgM
Experimental: U266 cells (American Type Culture Collection, Manassas, Va.), were cultured in RPMI 1640 with 15% fetal calf serum (FCS). Cells were stained with purified mouse anti-human MUC1 antibodies (CD227, 0.5 μg), non-immune BALB/c mice serum (1/5 dilution) and group B2 mice serum (1/5 dilution). The cells were then stained with FITC-conjugated goat anti-mouse IgG+IgM (0.5 μg) and fluorescence was quantified with a BD FACS Calibur.
These cells express MUC1 on their surface as shown by binding with mouse anti-human MUC1 antibodies (CD 227).

Substance | anti-Rha antibody titers in groups A2 and B2 relative to control groups [1] [fold] | IgG3 share of anti-Rha antibodies [2] [%] | IgM share of anti-Rha antibodies [2] [%] | binding to MUC1 on U266 human leukemia cells [3]
2-Aminoethyl-α-L-Rhamnopyranoside-Ficoll Conjugate [Rha-Ficoll] | 25 | 48 | 25 | 
CD 227: purified mouse anti-human CD227 (anti-human MUC1) from BD-biosciences |  |  |  | binding
